The text below walks through data of US12234211B2, “Cycloolefin substituted heteroaromatic compounds and their use” (HUTCHISON MEDIPHARMA LIMITED, priority 2017, dated 2025).

One may read the IC50 as the midpoint of a concentration-inhibition curve.

One assay deals with T1, IDH2-R140Q (Homo sapiens, UniProt P48735, R140Q).
T1 construct: expressed in transfected cells
T1 sequence (P48735 40-452 R140Q): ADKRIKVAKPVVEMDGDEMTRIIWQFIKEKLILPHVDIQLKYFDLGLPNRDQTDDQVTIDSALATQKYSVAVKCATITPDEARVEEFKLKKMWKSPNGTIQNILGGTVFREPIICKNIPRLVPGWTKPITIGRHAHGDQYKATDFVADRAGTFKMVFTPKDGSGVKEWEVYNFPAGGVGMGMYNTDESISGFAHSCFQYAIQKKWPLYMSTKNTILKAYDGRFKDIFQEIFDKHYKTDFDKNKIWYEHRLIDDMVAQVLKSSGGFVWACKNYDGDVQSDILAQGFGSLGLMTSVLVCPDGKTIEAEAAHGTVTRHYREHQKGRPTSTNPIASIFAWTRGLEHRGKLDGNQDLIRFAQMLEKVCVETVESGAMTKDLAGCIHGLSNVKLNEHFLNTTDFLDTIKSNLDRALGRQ
The experiment in a line: Fluorescent determination of IDH2-R140Q cell activity (2-HG in U87MGR140Q cells). In kind it is cell-based. To be noted: 72 hours incubation, read-out: IC50 (2-HG inhibition).

A further assay addresses T2, IDH1-R132H (Homo sapiens, UniProt O75874, R132H).
T2 construct: expressed in transfected cells; host or cells: U87MG cells (U87MGR132H)
The experiment in a line: Fluorescent determination of IDH1-R132H cell activity (2-HG in U87MGR132H cells). Conditions: 2-HG inhibition in U87MGR132H cells transfected with IDH1-R132H mutant plasmid. In kind it is cell-based.

T2 sequence (O75874 whole entry R132H): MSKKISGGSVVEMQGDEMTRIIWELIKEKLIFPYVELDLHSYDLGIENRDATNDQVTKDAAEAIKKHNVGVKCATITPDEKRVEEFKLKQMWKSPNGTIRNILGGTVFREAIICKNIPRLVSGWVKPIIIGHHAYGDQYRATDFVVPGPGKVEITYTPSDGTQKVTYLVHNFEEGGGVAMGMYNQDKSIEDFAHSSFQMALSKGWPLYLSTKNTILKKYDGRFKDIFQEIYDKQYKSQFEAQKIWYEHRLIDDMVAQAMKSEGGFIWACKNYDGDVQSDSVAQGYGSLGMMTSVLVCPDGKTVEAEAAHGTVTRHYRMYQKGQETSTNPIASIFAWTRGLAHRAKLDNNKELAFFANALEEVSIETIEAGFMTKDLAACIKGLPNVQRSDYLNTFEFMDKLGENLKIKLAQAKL

As for `C[C@@H](Nc1nc(NOC(C)(C)C)nc(C2=C(F)C(O)C(F)(F)CC2)n1)C(F)(F)F` (mixture of isomers) [Compound 294], the IC50 at IDH2-R140Q came to 425 nM; against IDH1-R132H, 9180 nM.

With `C[C@H](Nc1nc(NCC(F)(F)F)nc(C2=C(F)C(O)C(F)(F)CC2)n1)C(F)(F)F` (mixture of isomers) [Compound 270], the IC50 was 109 nM at IDH2-R140Q and 2850 nM at IDH1-R132H.

As for `C[C@@H](Nc1nc(N[C@H](C)C(F)(F)F)nc(C2=C(F)C(O)C(F)(F)CC2)n1)C(F)(F)F` (single isomer, unassigned) [Compound 198], the IC50 at IDH2-R140Q worked out at 845 nM; on IDH1-R132H it was 1890 nM.

`C[C@@H](Nc1nc(NC(CF)CF)nc(C2=C(F)C(O)CCC2)n1)C(F)(F)F` (some centres unmarked) [Compound 41]: the figures for the half-maximal inhibitory concentration (IC50) at IDH2-R140Q and against IDH1-R132H were 297 nM and 1630 nM, respectively.

As for `CC(C)(C)ONc1nc(Nc2ccnc(Cl)c2)nc(C2=C(F)C(O)C(F)(F)CC2)n1` (centres unmarked) [Compound 216], the 50% inhibitory concentration (IC50) at IDH2-R140Q was determined as 82 nM; against IDH1-R132H, 8520 nM.

As to `C[C@@H](Nc1nc(NC(C)(C)C)nc(C2=CC(O)CCC2)n1)C(F)(F)F` (mixture of isomers) [Compound 155], the half-inhibitory concentration (IC50) worked out at 319 nM on IDH2-R140Q and 2240 nM against IDH1-R132H.

In the case of `CCCNc1nc(N[C@H](C)C(F)(F)F)nc(C2=C(F)C(O)CCC2)n1` (some centres unmarked) [Compound 81], the results for the IC50 at IDH2-R140Q and against IDH1-R132H were 99 nM and 3570 nM, respectively.

Turning to `[2H]C([2H])([2H])C([2H])(Nc1nc(Nc2ccnc(C(F)(F)F)c2)nc(C2=C(F)C(O)CCC2)n1)C([2H])([2H])[2H]` (centres unmarked) [Compound 54], the half-inhibitory concentration (IC50) was found to be 15 nM at IDH2-R140Q and 1680 nM against IDH1-R132H.

With `C[C@@H](Nc1nc(NCC2CC2)nc(C2=C(F)C(O)C(F)CC2)n1)C(F)(F)F` (single isomer, unassigned) [Compound 226], the half-inhibitory concentration (IC50) on IDH2-R140Q was determined as 361 nM; against IDH1-R132H it was 5120 nM.

Consider `Cc1nccc(Nc2nc(NOC(C)(C)C)nc(C3=C(F)C(O)CCC3)n2)n1` (centres unmarked) [Compound 205], for which the IC50 at IDH2-R140Q was 803 nM; against IDH1-R132H, > 10000 nM.

For the compound `CC(C)Nc1nc(Nc2ccnc(F)c2)nc(C2=C(F)C(O)CCC2)n1` (centres unmarked) [Compound 74], the concentration for half-maximal inhibition (IC50) came out at 34 nM at IDH2-R140Q and 7440 nM against IDH1-R132H.

Turning to `C[C@@H](Nc1nc(N[C@H](C)C(F)(F)F)nc(C2=C(F)C(=O)C(F)(F)CC2)n1)C(F)(F)F` [Compound 296], the IC50 amounted to 423 nM on IDH2-R140Q and 1140 nM on IDH1-R132H.

With `OC1C(F)=C(c2nc(Nc3ccnc(C(F)(F)F)c3)nc(NC(C3CC3)C3CC3)n2)CCC1(F)F` (centres unmarked) [Compound 220], the IC50 stood at 59 nM on IDH2-R140Q and 2880 nM at IDH1-R132H.

As to `C[C@@H](Nc1nc(NC2CC2)nc(C2=C(F)C(O)C(F)(F)CC2)n1)C(F)(F)F` (mixture of isomers) [Compound 238], the IC50 came to 139 nM at IDH2-R140Q and 7360 nM on IDH1-R132H.

As for `CC(Nc1nc(N[C@H](C)C(F)(F)F)nc(C2=C(F)C(O)CCC2)n1)C(C)(F)F` (mixture of isomers) [Compound 175], the IC50 came to 291 nM on IDH2-R140Q and 495 nM on IDH1-R132H.

As for `C[C@@H](Nc1nc(N[C@H](C)C(F)(F)F)c(F)c(C2=CC(O)CCC2)n1)C(F)(F)F` (mixture of isomers) [Compound 207, 3-(5-fluoro-2,6-bis(((R)-1,1,1-trifluoropropan-2-yl)amino)pyrimidin-4-yl)cyclohex-2-en-1-ol], the half-inhibitory concentration (IC50) at IDH2-R140Q worked out at 564 nM; against IDH1-R132H, 1510 nM.

For `C[C@@H](CF)Nc1nc(N[C@H](C)C(F)(F)F)nc(C2=C(F)C(O)CCC2)n1` (mixture of isomers) [Compound 170], the IC50 worked out at 1380 nM on IDH2-R140Q and 6930 nM on IDH1-R132H.

For `OC1C(F)=C(c2nc(Nc3ccnc(C(F)(F)F)c3)nc(N3CC(F)(F)C3)n2)CCC1(F)F` (single isomer, unassigned) [Compound 221], the IC50 on IDH2-R140Q was 487 nM; on IDH1-R132H, > 10000 nM.

As for `CC(C)Nc1nc(NC2CC(F)(F)C2)nc(C2=C(F)C(O)CCC2)n1` (centres unmarked) [Compound 51], the IC50 on IDH2-R140Q came to 125 nM; at IDH1-R132H, 6040 nM.

Consider `C[C@@H](Nc1nc(N)nc(C2=C(F)C(O)C(F)(F)CC2)n1)C(F)(F)F` (stereo partly drawn) [Compound 280, 3-(4-Amino-6-(((R)-1,1,1-trifluoropropan-2-yl)amino)-1,3,5-triazin-2-yl)-2,6,6-trifluoro-cyclohex-2-en-1-ol], for which the IC50 on IDH2-R140Q and against IDH1-R132H was > 10000 nM throughout.

Take `CC(C)[C@@H](C)Nc1nc(N[C@H](C)C(F)(F)F)nc(C2=C(F)C(O)CCC2)n1` (mixture of isomers) [Compound 163]: the IC50 on IDH2-R140Q was determined as 162 nM; against IDH1-R132H, 809 nM.

Take `C[C@@H](Nc1nc(NC2CCC(F)(F)CC2)nc(C2=CC(O)CCC2)n1)C(F)(F)F` (some centres unmarked) [Compound 181]: the values for the concentration for half-maximal inhibition (IC50) at IDH2-R140Q and at IDH1-R132H were 177 nM and 476 nM, respectively.

With `C[C@@H](Nc1nc(N[C@@H]2CCC(F)(F)C2)nc(C2=C(F)C(O)C(F)CC2)n1)C(F)(F)F` (single isomer, unassigned) [Compound 233], the IC50 on IDH2-R140Q was found to be 368 nM; against IDH1-R132H, 628 nM.

Regarding `CC(C)Nc1nc(Nc2ccc3nscc3c2)nc(C2=C(F)C(O)CCC2)n1` (racemic) [Compound 229], the 50% inhibitory concentration (IC50) on IDH2-R140Q is 383 nM; at IDH1-R132H, > 10000 nM.

Consider `[2H]C1(O)CCCCC(c2nc(NC3CC(F)(F)C3)nc(N[C@H](C)C(F)(F)F)n2)=C1F` (mixture of isomers) [Compound 24], for which the IC50 was determined as 197 nM at IDH2-R140Q and 769 nM against IDH1-R132H.

`C[C@@H](Nc1nc(NC2CC2)nc(C2=C(F)C(O)CCC2)n1)C(F)(F)F` (some centres unmarked) [Compound 224]: the half-maximal inhibitory concentration (IC50) on IDH2-R140Q is 137 nM; on IDH1-R132H, 4650 nM.

With `C[C@@H](Nc1nc(N[C@H](C)C(F)(F)F)nc(C2=C(F)C(O)CCC2)n1)C(F)(F)F` (stereo partly drawn) [Compound 82, (*)3-(4,6-Bis(((R)-1,1,1-trifluoropropan-2-yl)amino)-1,3,5-triazin-2-yl)-2-fluorocyclohex-2-en-6,6-D2-1-ol], the IC50 at IDH2-R140Q was determined as 75 nM; against IDH1-R132H, 181 nM.

For the compound `CCCNc1nc(N[C@H](C)C(F)(F)F)nc(C2=C(F)C(O)C(F)(F)CC2)n1` (mixture of isomers) [Compound 210], the IC50 at IDH2-R140Q stood at 93 nM; on IDH1-R132H, 4340 nM.

`C[C@@H](Nc1nc(NCC(F)(F)F)nc(C2=C(F)C(O)CCC2)n1)C(F)(F)F` (some centres unmarked) [Compound 79]: the IC50 was 106 nM on IDH2-R140Q and 1300 nM against IDH1-R132H.

As for `CC(C)CNc1nc(N[C@H](C)C(F)(F)F)nc(C2=CC(O)CCC2)n1` (mixture of isomers) [Compound 134], the values for the IC50 at IDH2-R140Q and against IDH1-R132H were 100 nM and 2470 nM, respectively.

Take `[2H]C1(O)C=C(c2nc(N[C@H](C)C(F)(F)F)nc(N[C@H](C)C(F)(F)F)n2)CCC1(F)F` (mixture of isomers) [Compound 282]: the IC50 came to 343 nM at IDH2-R140Q and 444 nM at IDH1-R132H.

For the compound `[2H]C1([2H])CCC(c2nc(NOC(C)(C)C)nc(Nc3ccnc(C(F)(F)F)c3)n2)=C(F)C1O` (centres unmarked) [Compound 89], the half-maximal inhibitory concentration (IC50) at IDH2-R140Q stood at 57 nM; against IDH1-R132H, 2960 nM.

On to `CC(C)(C)ONc1nc(Nc2ccnc(Cl)c2)nc(C2=C(F)C(O)CCC2)n1` (centres unmarked) [Compound 47], for which the IC50 on IDH2-R140Q is 59 nM; against IDH1-R132H, 5640 nM.

`C[C@@H](Nc1nc(NC2CCCCC2)nc(C2=CC(O)CCC2)n1)C(F)(F)F` (mixture of isomers) [Compound 136]: the half-maximal inhibitory concentration (IC50) on IDH2-R140Q was 296 nM; against IDH1-R132H, 1340 nM.

For `C[C@H](Nc1nc(NOC(C)(C)C)nc(C2=C(F)C(O)C(F)(F)CC2)n1)C(F)(F)F` (mixture of isomers) [Compound 293], the results for the 50% inhibitory concentration (IC50) at IDH2-R140Q and at IDH1-R132H were 637 nM and > 10000 nM, respectively.

For the compound `C[C@H](Nc1nc(N[C@@H](C)C(F)(F)F)nc(C2=C(F)C(O)C(F)(F)CC2)n1)C(F)(F)F` (mixture of isomers) [Compound 283], the values for the IC50 at IDH2-R140Q and on IDH1-R132H were 174 nM and 1320 nM, respectively.

Regarding `C[C@@H](Nc1nc(N[C@H](C)C(F)(F)F)nc(C2=C(F)C(O)CCC2)n1)C(F)(F)F` (stereo partly drawn) [Compound 83, 3-(4,6-bis(((R)-1,1,1-trifluoropropan-2-yl)amino)-1,3,5-triazin-2-yl)-2-fluorocyclohex-2-en-1,6,6-D3-1-ol], the figures for the half-inhibitory concentration (IC50) at IDH2-R140Q and against IDH1-R132H were 203 nM and 282 nM, respectively.

As for `C[C@@H](Nc1nc(N[C@H](C)C(F)(F)F)nc(C2=CC(O)C(F)(F)CC2)n1)C(F)(F)F` (mixture of isomers) [Compound 281], the results for the half-maximal inhibitory concentration (IC50) on IDH2-R140Q and against IDH1-R132H were 690 nM and 455 nM, respectively.

On to `C[C@@H](Nc1nc(NCC2CC(F)(F)C2)nc(C2=C(F)C(O)CCC2)n1)C(F)(F)F` (mixture of isomers) [Compound 13], for which the 50% inhibitory concentration (IC50) on IDH2-R140Q amounted to 373 nM; against IDH1-R132H, 2080 nM.

Consider `CC(C)(O)CNc1nc(Nc2ccn3nccc3c2)nc(C2=C(F)C(O)CCC2)n1` (centres unmarked) [Compound 67], for which the IC50 at IDH2-R140Q is 2370 nM; on IDH1-R132H it was > 10000 nM.

Consider `CONc1nc(Nc2ccnc(C(F)(F)F)c2)nc(C2=C(F)C(O)C(F)(F)CC2)n1` (centres unmarked) [Compound 298], for which the IC50 is 620 nM at IDH2-R140Q and > 10000 nM on IDH1-R132H.

Take `C[C@@H](Nc1nc(N[C@H](C)C(F)(F)F)nc(C2=C(F)C(O)CCCC2)n1)C(F)(F)F` (mixture of isomers) [Compound 21]: the figures for the 50% inhibitory concentration (IC50) on IDH2-R140Q and against IDH1-R132H were 99 nM and 234 nM, respectively.

`CC(C)Nc1nc(N[C@H](C)C(F)(F)F)nc(C2=C(F)C(O)C(F)(F)CC2)n1` (some centres unmarked) [Compound 244]: the IC50 on IDH2-R140Q is 53 nM; at IDH1-R132H, 1080 nM.
